# PMC7221826, “5-Oxo-hexahydroquinoline Derivatives and Their Tetrahydroquinoline Counterparts as Multidrug Resistance Reversal Agents” (Molecules, 2020)
# “Also recorded” adds a separate entry of the source. Read-outs that look alike come from different tables or passages of the source.
# Columns and labels:
# MES-SA-DX5 = assay: MTT cell viability assay, MES-SA-DX5; type: cell-based, human; settings: Homo sapiens, MES-SA/Dx5, 72 h, multidrug resistant, P-gp overexpressing, read-out: IC50 (µM) in Cultured Cells MES-SA-DX5
# Source text: (§1) Cell lines used for cytotoxicity assays included MCF-7 (human breast adenocarcinoma), A549 (human lung adenocarcinoma), K562 (human chronic myelogenous leukemia) and HEK-293 (human embryonic kidney) cells and were obtained from the Iranian Biological Resource Center, Tehran, Iran. MES-SA-DX5 multidrug resistant human uterine sarcoma, over-expressing P-gp and their parental non-resistant MES-SA cell lines were purchased from Sigma-Aldrich (St. Louis, MO, USA). All cells, except for HEK-293, were cultured in RPMI 1640 supplemented with 10% FBS and 100 units/mL penicillin-streptomycin at 37 °C in humidified air containing 5% CO2. HEK-293 cells were maintained in DMEM-F12 medium containing L-glutamine 2 mM supplemented with FBS and penicillin-streptomycin. MES-SA-DX5 cells were maintained in media containing 100 nM doxorubicin in order to ensure that only drug-resistant cells continue to grow.
# (§2) Cytotoxicity of the test compounds were evaluated by MTT assay. In this method, reduction of MTT, a yellow tetrazolium salt to the purple formazan, by cellular dehydrogenase enzymes is determined as an index of cell viability. Cancer cells were seeded into 96-well plates (3–5 × 10^3 cells/well) and incubated for 24 h at 37 °C. Afterwards, four different concentrations of synthesized derivatives were added in triplicate and the cells were incubated at 37 °C for another 72 h, after which the media was replaced with MTT solution at a concentration of 0.5 mg/mL was added for MTT assay. After another 4h, formazan crystals were dissolved in 200 μL DMSO for 90 min and absorbance was measured at a wavelength of 570 nm with background correction at 650 nm using a microplate reader (model 680, Bio-Rad, Hercules, CA, USA) and IC50 for each compound was calculated with CurveExpert version 1.34 for Windows.
# MES-SA = assay: MTT cell viability assay, MES-SA; type: cell-based, human; settings: MTT; for IC50: Homo sapiens, MES-SA, 72 h, parental non-resistant, read-out: IC50 (µM) in Cultured Cells MES-SA
# Source text: as §1, §2
# HEK-293 = assay: MTT cell viability assay, HEK-293; type: cell-based, human; settings: non-cancerous, read-out: IC50 (µM) in Cultured Cells HEK-293
# Source text: as §1, §2
# MES-SA-DX5 cells = assay: Cell cycle analysis by propidium iodide (PI)-RNase flow cytometry; type: cell-based, human; set-up: Sub G1: unit not given here; settings: 24 h
# Description: The analysis of cells in different phases of cell cycle and sub-G1 was performed using propidium iodide (PI)-RNase assay by flow cytometry. MES-SA-DX5 cells were seeded in 12-well plates (1 × 10^6 cells/well) and treated with different concentrations of synthesized compounds for 24 h. The cells were then collected, washed with PBS, and fixed with 70% ethanol overnight at –20 °C. After at least 24 h, fixed cells were washed with PBS and subsequently stained with a DNA staining solution containing PI 20 μg/mL and RNase 200 μg/mL at room temperature for 30 min in the dark. Twenty thousand cells of each sample were analyzed using a BD FACSCalibur flow cytometer (BD Biosciences, USA) and the amount of the cells in sub-G1, G0/G1, S, and G2/M phases were estimated using CellQuest (Becton Dickinson, San Jose, CA, USA) software.
# Therefore, it could be concluded that these compounds cause cytotoxicity in drug resistant MES-SA-DX5 cells by induction of apoptosis in these cells.
# Figure 3 Effect of synthesized derivatives on cell cycle alterations in MES-SA-DX5 drug resistant cells. The cells in different phases of cell cycle were monitored using propidium iodide (PI)-RNase assay by flow cytometry. MES-SA-DX5 cells were seeded in 12-well plates (1 × 10^6 cells/well) and treated with different concentrations of synthesized compounds for 24 h. The cells were then collected, washed with PBS and fixed with 70% ethanol overnight at –20 °C. After at least 24 h, fixed cells were washed with PBS and subsequently stained with a DNA staining solution containing PI 20 μg/mL and RNase 200 μg/mL at room temperature for 30 min in the dark. Twenty thousand cells of each sample were analyzed using a FACS Calibur flow cytometer (BD Biosciences, USA). Representative histograms of cells treated with synthesized compounds are shown. An increase in sub-G1 phase cells could be observed after treatment with A1, A2, B1, and B2 compounds.
# A-549 = assay: MTT cell viability assay, A-549; type: cell-based, human; settings: Homo sapiens, A549, 72 h, read-out: IC50 (µM) in Cultured Cells A-549
# Source text: as §1, §2
# P-gp = target: T1, P-gp (Homo sapiens, UniProt P08183); assay: MDR reversal assay: flow cytometric detection of Rhodamine123 efflux/accumulation in MES-SA-DX5 cells; type: cell-based; settings: compounds at 5, 10 and 25 µM, 5 µM Rh123
# T1 construct: MES-SA-DX5 is a resistant cell line, which overexpresses P-gp as a result of constant exposure to doxorubicin; host or cells: MES-SA-DX5 human uterine sarcoma cells
# T1 sequence (P08183 whole entry): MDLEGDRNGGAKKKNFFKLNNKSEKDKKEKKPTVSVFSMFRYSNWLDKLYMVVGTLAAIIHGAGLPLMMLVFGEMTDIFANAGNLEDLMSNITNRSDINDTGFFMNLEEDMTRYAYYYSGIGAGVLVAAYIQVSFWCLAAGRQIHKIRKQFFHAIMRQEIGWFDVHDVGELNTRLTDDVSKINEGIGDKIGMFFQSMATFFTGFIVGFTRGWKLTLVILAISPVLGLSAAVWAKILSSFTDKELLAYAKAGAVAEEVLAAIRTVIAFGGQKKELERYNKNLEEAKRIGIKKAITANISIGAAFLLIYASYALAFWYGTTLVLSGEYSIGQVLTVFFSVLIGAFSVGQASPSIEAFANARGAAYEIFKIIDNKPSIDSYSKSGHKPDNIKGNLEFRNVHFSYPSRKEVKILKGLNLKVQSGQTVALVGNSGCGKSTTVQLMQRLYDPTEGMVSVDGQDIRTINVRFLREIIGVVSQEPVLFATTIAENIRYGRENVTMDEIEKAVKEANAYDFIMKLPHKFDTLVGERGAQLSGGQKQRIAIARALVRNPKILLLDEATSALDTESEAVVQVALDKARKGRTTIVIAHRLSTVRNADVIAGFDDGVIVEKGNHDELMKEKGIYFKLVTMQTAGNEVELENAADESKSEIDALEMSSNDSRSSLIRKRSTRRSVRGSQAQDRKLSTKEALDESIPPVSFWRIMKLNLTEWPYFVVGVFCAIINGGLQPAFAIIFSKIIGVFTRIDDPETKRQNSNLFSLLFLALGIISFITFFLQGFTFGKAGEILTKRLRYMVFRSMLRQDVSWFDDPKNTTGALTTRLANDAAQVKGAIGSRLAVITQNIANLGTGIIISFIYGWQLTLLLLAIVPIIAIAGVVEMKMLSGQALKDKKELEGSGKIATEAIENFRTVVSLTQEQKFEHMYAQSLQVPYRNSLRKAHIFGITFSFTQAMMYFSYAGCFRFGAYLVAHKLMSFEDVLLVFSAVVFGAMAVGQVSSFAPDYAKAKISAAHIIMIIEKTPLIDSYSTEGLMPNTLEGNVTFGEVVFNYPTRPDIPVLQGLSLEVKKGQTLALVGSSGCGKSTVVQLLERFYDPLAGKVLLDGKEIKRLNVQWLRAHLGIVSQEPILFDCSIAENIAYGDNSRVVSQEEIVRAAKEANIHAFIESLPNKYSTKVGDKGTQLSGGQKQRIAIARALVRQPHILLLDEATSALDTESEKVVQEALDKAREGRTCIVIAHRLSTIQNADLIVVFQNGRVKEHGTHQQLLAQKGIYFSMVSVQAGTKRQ
# Description: Rhodamine 123 (Rh123) is a well-known substrate of P-gp and it is readily pumped out of the cells by this ABC transporter. The amount of retained Rh123 in the cells indicates the efflux function of the target transporter. Flow cytometric analysis was used for assessment of intracellular Rh123 as previously described.
# Briefly, a suspension of the multidrug resistant uterine sarcoma MES-SA-DX5 cells at a density of 5 × 10^5 cells/mL in growth medium was prepared. Four-hundred microliters (400 µL) of the synthesized compounds with final concentration of 5, 10, and 25 µM were added to 500 µL of the cell suspension. Verapamil was also tested as a positive control. After an incubation of 20 min, 50 µL of Rh123 at a final concentration of 5 µM was added and incubated for further 30 min at 37 °C. The cells were then centrifuged and washed twice with ice-cold PBS, and then resuspended in PBS and kept on ice. Rh123 accumulated in cells was then quantified by a FACSCalibur flow cytometer (Becton Dickinson, San Jose, CA, USA) with excitation and emission wavelengths of 488 and 530 nm, respectively. Geometric means of fluorescence intensity values were determined using Flowing Software (http://flowingsoftware.btk.fi/).
# Accumulation of Rhodamine123 (Rh123), caused by inhibition of P-gp-mediated efflux, was determined by flow cytometry in the multidrug resistant uterine sarcoma MES-SA-DX5 cell line. Verapamil was used as a positive control. MES-SA-DX5 is a resistant cell line, which overexpresses P-gp as a result of constant exposure to doxorubicin. Alterations in the amount of the fluorescent Rh123 retained inside the MES-SA-DX5 cells can be plausibly related to the inhibition of the activity of P-gp efflux pump in the cells (Figure 1). The ratio of the geometric mean value of cells treated with synthesized compounds to the geometric mean value of the control untreated cells are show in Figure 2.
# Figure 2 MDR reversal assessed by flow cytometric detection of Rhodamine123 efflux in MES-SA-DX5 cells. Cells were suspended in RPMI 1640 and treated with verapamil (Ver, positive control) or synthesized derivatives. After incubation for 20 min, 5 μM Rh123 was added, the cells were incubated for another […] at 37 °C and then centrifuged and washed twice with ice-cold PBS and resuspended in PBS. The fluorescence caused by the presence of Rh123 in cells was measured using a flow cytometer with excitation and emission wavelengths of 488 nm and 530 nm, respectively. The values represent the mean ± S.E.M. of 3–5 experiments. * The difference between treated and controlled cells are statistically significant (p ˂ 0.05).
# K562 = assay: MTT cell viability assay, K562; type: cell-based, human; settings: Homo sapiens, K562, 72 h, read-out: IC50 (µM) in Cultured Cells K562
# Source text: as §1, §2
# MCF-7 = assay: MTT cell viability assay, MCF-7; type: cell-based, human; settings: Homo sapiens, MCF7, 72 h, read-out: IC50 (µM) in Cultured Cells MCF-7
# Source text: as §1, §2
IC50 (A-549) [µM],melting point [°C],IC50 (K562) [µM],IC50 (MCF-7) [µM],SMILES,IC50 (MES-SA-DX5) [µM],IC50 (MES-SA) [µM],"IC50 (HEK-293; Homo sapiens, HEK293, 72 h) [µM]",G0/G1 (MES-SA-DX5 cells; 10 µM),G2/M (MES-SA-DX5 cells; 10 µM),S (MES-SA-DX5 cells; 10 µM),Sub G1 (MES-SA-DX5 cells; 10 µM),G0/G1 (MES-SA-DX5 cells; 25 µM),G2/M (MES-SA-DX5 cells; 25 µM),S (MES-SA-DX5 cells; 25 µM),Sub G1 (MES-SA-DX5 cells; 25 µM),S (MES-SA-DX5 cells; 100 µM),P-gp inhibitory activity (Rh123 accumulation) (P-gp),effect against parental non-resistant MES-SA cells (MES-SA),G0/G1 (MES-SA-DX5 cells; 100 µM),G2/M (MES-SA-DX5 cells; 100 µM),further results
60 ± 3,248,6.7 ± 0.6,47.1 ± 2.1,"Cc1nc(NC(=O)c2c(C)nc3c(c2-c2ccc(Cl)cc2Cl)C(=O)CCC3)cs1 [Compound B1, 4-(2,4-Dichlorophenyl)-2-methyl-N-(2-methylthiazol-4-yl)-5-oxo-5,6,7,8-tetrahydroquinoline-3-carboxamide]",39.8 ± 1.6,55.6 ± 2.4,39.9 ± 5.4,49.10 ± 3.7,29.03 ± 2.1,21.27 ± 2.1,0.64 ± 0.1,51.13 ± 2.4,27.03 ± 0.6,20.90 ± 2.0,0.91 ± 0.0,25.17 ± 0.7,significantly blocked P-gp efflux,–,–,–,–
86.8 ± 5,261,10.1 ± 1.5,77.7 ± 8.7,"Cc1nc(NC(=O)c2c(C)nc3c(c2-c2ccc(Br)cc2)C(=O)CCC3)cs1 [Compound B2, 4-(4-Bromophenyl)-2-methyl-N-(2-methylthiazol-4-yl)-5-oxo-5,6,7,8-tetrahydroquinoline-3-carboxamide]",43.6 ± 2.8,> 100,> 50,53.00 ± 3.6,24.13 ± 2.4,21.80 ± 1.5,0.96 ± 0.1,55.83 ± 2.6,22.23 ± 1.4,20.30 ± 1.7,1.57 ± 0.4,19.48 ± 1.8,significantly blocked P-gp efflux; also recorded: highest P-gp inhibitory activities,did not show any effect,47.00 ± 0.6,29.27 ± 1.8,–

# The remaining lines, values behind:
SMILES,IC50 (A-549) [µM],melting point [°C],IC50 (K562) [µM],IC50 (MCF-7) [µM],IC50 (MES-SA-DX5) [µM],IC50 (MES-SA) [µM],"IC50 (HEK-293; Homo sapiens, HEK293, 72 h) [µM]",G0/G1 (MES-SA-DX5 cells; 10 µM),G2/M (MES-SA-DX5 cells; 10 µM),S (MES-SA-DX5 cells; 10 µM),Sub G1 (MES-SA-DX5 cells; 10 µM),G0/G1 (MES-SA-DX5 cells; 25 µM),G2/M (MES-SA-DX5 cells; 25 µM),S (MES-SA-DX5 cells; 25 µM),Sub G1 (MES-SA-DX5 cells; 25 µM),S (MES-SA-DX5 cells; 100 µM),P-gp inhibitory activity (Rh123 accumulation) (P-gp),effect against parental non-resistant MES-SA cells (MES-SA),G0/G1 (MES-SA-DX5 cells; 100 µM),G2/M (MES-SA-DX5 cells; 100 µM),further results
"CC1=C(C(=O)Nc2csc(C)n2)C(c2ccc(Br)cc2)C2=C(CCCC2=O)N1 (stereo not shown) [Compound A2, 4-(4-Bromophenyl)-2-methyl-N-(2-methylthiazol-4-yl)-5-oxo-1,4,5,6,7,8-hexahydroquinoline-3-carboxamide]",87.1 ± 6.7,273,31 ± 2.7,56.7 ± 3.6,31.5 ± 1.5,> 100,> 50,56.45 ± 1.1,23.45 ± 0.2,18.90 ± 0.2,1.21 ± 0.7,59.47 ± 3.0,20.23 ± 0.7,18.53 ± 1.7,1.71 ± 1.1,19.27 ± 0.3,significantly blocked P-gp efflux; also recorded: highest P-gp inhibitory activities,did not show any effect,50.57 ± 2.8,18.37 ± 2.6,IC50 (HEK-293; 72 h): 63.1 ± 7.4 µM
"CC1=C(C(=O)Nc2csc(C)n2)C(c2ccc(Cl)cc2Cl)C2=C(CCCC2=O)N1 (stereo not shown) [Compound A1, 4-(2,4-Dichlorophenyl)-2-methyl-N-(2-methylthiazol-4-yl)-5-oxo-1,4,5,6,7,8-hexahydroquinoline-3-carboxamide]",48.8 ± 1.3,195,15 ± 0.5,72.5 ± 11.9,40.1 ± 4.7,64.1 ± 19.4,28.6 ± 4.3,52.32 ± 1.8,25.12 ± 1.7,21.85 ± 1.0,0.61 ± 0.2,53.30 ± 0.9,25.01 ± 0.7,20.96 ± 1.2,0.71 ± 0.2,21.12 ± 1.6,significantly blocked P-gp efflux; also recorded: highest P-gp inhibitory activities,–,–,–,–
"CC1=C(C(=O)Nc2csc(C)n2)C(c2ccc(Cl)cc2)C2=C(CCCC2=O)N1 (stereo not shown) [Compound A5, 4-(4-Chlorophenyl)-2-methyl-N-(2-methylthiazol-4-yl)-5-oxo-1,4,5,6,7,8-hexahydroquinoline-3-carboxamide]",87.4 ± 1.5,253,31.5 ± 3.3,72.9 ± 12.3,40.3 ± 3,69.5 ± 12.5,> 50,56.07 ± 0.3,24.20 ± 1.2,19.03 ± 0.9,0.65 ± 0.2,58.03 ± 0.7,22.33 ± 0.5,18.90 ± 0.9,0.70 ± 0.3,18.58 ± 0.6,–,–,48.92 ± 1.4,29.32 ± 1.2,IC50 (HEK-293; 72 h): 71.1 ± 10.1 µM
